Data as given in ChEMBL document CHEMBL2434942, “β-Ionone derived chalcones as potent antiproliferative agents” (Eur J Med Chem, 2013).
Activity calls are given as the source filed them. The calls are words filed in the database; no cut-off is given here.

Assays:
[1] = Cytotoxicity against human Hep cells after 48 hrs by SRB assay; format: functional, cell-based
HeLa = assay: Cytotoxicity against human HeLa cells after 48 hrs by SRB assay; format: functional, cell-based
IMR-32 = assay: Cytotoxicity against human IMR32 cells after 48 hrs by SRB assay; format: functional, cell-based; conditions: IMR-32, 48 h
PC-3 = assay: Cytotoxicity against human PC3 cells after 48 hrs by SRB assay; format: functional, cell-based; conditions: PC-3, 48 h
MCF7 = assay: Cytotoxicity against human MCF7 cells after 48 hrs by SRB assay; format: functional, cell-based; conditions: MCF7, 48 h
CHO [2] = assay: Induction of apoptosis in CHO cells assessed as necrotic cells at 10 uM after 12 hrs using Annexin V/PI staining by flow cytometry (reference value: 3%); format: functional, Cricetulus griseus
CHO [3] = assay: Induction of apoptosis in CHO cells assessed as late apoptotic cells at 10 uM after 12 hrs using Annexin V/PI staining by flow cytometry (reference value: 1%); format: functional, Cricetulus griseus
CHO [4] = assay: Induction of apoptosis in CHO cells assessed as viable cells at 10 uM after 12 hrs using Annexin V/PI staining by flow cytometry (reference value: 91.8%); format: functional; conditions: Cricetulus griseus, read-out: Activity
CHO [5] = assay: Induction of apoptosis in CHO cells assessed as early apoptotic cells at 10 uM after 12 hrs using Annexin V/PI staining by flow cytometry (reference value: 4.3%); format: functional, Cricetulus griseus
CHO [6] = assay: Cell cycle arrest in CHO cells assessed as accumulation at sub-G0 phase at 10 uM after 12 hrs using propidium iodide staining by FACS analysis (reference value: 19.8%); format: functional, Cricetulus griseus
CHO [7] = assay: Induction of apoptosis in CHO cells assessed as necrotic cells at 15 uM after 12 hrs using Annexin V/PI staining by flow cytometry (reference value: 3%); format: functional, Cricetulus griseus
CHO [8] = assay: Induction of apoptosis in CHO cells assessed as late apoptotic cells at 15 uM after 12 hrs using Annexin V/PI staining by flow cytometry (reference value: 1%); format: functional, Cricetulus griseus
CHO [9] = assay: Induction of apoptosis in CHO cells assessed as viable cells at 15 uM after 12 hrs using Annexin V/PI staining by flow cytometry (reference value: 91.8%); format: functional; conditions: Cricetulus griseus, read-out: Activity
CHO [10] = assay: Induction of apoptosis in CHO cells assessed as early apoptotic cells at 15 uM after 12 hrs using Annexin V/PI staining by flow cytometry (reference value: 4.3%); format: functional, Cricetulus griseus
CHO [11] = assay: Induction of apoptosis in CHO cells assessed as necrotic cells at 5 uM after 12 hrs using Annexin V/PI staining by flow cytometry (reference value: 3%); format: functional, Cricetulus griseus
CHO [12] = assay: Induction of apoptosis in CHO cells assessed as late apoptotic cells at 5 uM after 12 hrs using Annexin V/PI staining by flow cytometry (reference value: 1%); format: functional, Cricetulus griseus
CHO [13] = assay: Induction of apoptosis in CHO cells assessed as viable cells at 5 uM after 12 hrs using Annexin V/PI staining by flow cytometry (reference value: 91.8%); format: functional; conditions: Cricetulus griseus, read-out: Activity
CHO [14] = assay: Induction of apoptosis in CHO cells assessed as early apoptotic cells at 5 uM after 12 hrs using Annexin V/PI staining by flow cytometry (reference value: 4.3%); format: functional, Cricetulus griseus
CHO [15] = assay: Cell cycle arrest in CHO cells assessed as accumulation at sub-G0 phase at 15 uM after 12 hrs using propidium iodide staining by FACS analysis (reference value: 19.8%); format: functional, Cricetulus griseus
CHO [16] = assay: Cell cycle arrest in CHO cells assessed as accumulation at sub-G0 phase at 5 uM after 12 hrs using propidium iodide staining by FACS analysis (reference value: 19.8%); format: functional, Cricetulus griseus
CHO [17] = assay: Induction of apoptosis in CHO cells assessed as cell shrinkage, membrane blebbing and formation of apoptotic body at 5 to 15 uM after 6 to 12 hrs by inverted light microscopic analysis; format: functional, cell-based; conditions: Cricetulus griseus
CHO [18] = assay: Induction of apoptosis in CHO cells assessed as cell shrinkage, membrane blebbing and formation of apoptotic body at 5 to 15 uM after 24 hrs by inverted light microscopic analysis; format: functional, cell-based; conditions: Cricetulus griseus
CHO [19] = assay: Cytotoxicity against CHO cells after 48 hrs by SRB assay; format: functional, cell-based; conditions: Cricetulus griseus

| Structure (SMILES) | IC50 [1] [µM] | IC50 (HeLa) [µM] | IC50 (IMR-32) [µM] | IC50 (PC-3) [µM] | IC50 (MCF7) [µM] | also measured |
| --- | --- | --- | --- | --- | --- | --- |
| CC1=C(/C=C/C(=O)/C=C/c2ccc(Cl)cc2)C(C)(C)CCC1 | 90.6 | 33.2 | 52.3 | 9.5 | 10.2 | – |
| CC1=C(/C=C/C(=O)/C=C/c2ccc(C)cc2)C(C)(C)CCC1 | 44.1 | 20.4 | 19.2 | 21.5 | 23.8 | – |
| CO[C@@]12[C@H](COC(N)=O)C3=C(C(=O)C(C)=C(N)C3=O)N1C[C@@H]1N[C@@H]12 [MITOMYCIN] | – | 2 | – | – | – | – |
| CC[C@@]1(O)C(=O)OCc2c1cc1n(c2=O)Cc2cc3ccccc3nc2-1 [CAMPTOTHECIN] | – | – | – | – | – | Activity (CHO [2]): 21.6%; Activity (CHO [3]): 2.4%; viability at 10 µM (CHO [4]): 74.8%; Activity (CHO [5]): 1.2%; Activity (CHO [6]): 50.5% |
| COc1ccccc1/C=C/C(=O)/C=C/C1=C(C)CCCC1(C)C | 38.9 | 88.2 | 19.2 | 14.2 | 13.4 | – |
| CC1=C(/C=C/C(=O)/C=C/c2ccccc2C)C(C)(C)CCC1 | 41 | > 100 | 63.2 | 44.1 | 44.6 | – |
| CC(=O)O[C@H]1C(=O)[C@@]2(C)[C@H]([C@H](OC(=O)c3ccccc3)[C@]3(O)C[C@H](OC(=O)[C@H](O)[C@@H](NC(=O)c4ccccc4)c4ccccc4)C(C)=C1C3(C)C)[C@]1(OC(C)=O)CO[C@@H]1C[C@@H]2O [PACLITAXEL] | – | – | – | 1.5 | 0.5 | – |
| CC1=C(/C=C/C(=O)/C=C/c2ccoc2)C(C)(C)CCC1 | > 100 | 88.4 | 56.8 | 50.3 | 100 | – |
| COc1cc(/C=C/C(=O)/C=C/C2=C(C)CCCC2(C)C)cc(OC)c1OC | 45.5 | 73.2 | 55.5 | 32.6 | 18.7 | – |
| CC1=C(/C=C/C(=O)/C=C/c2cccnc2)C(C)(C)CCC1 | 45.6 | 17.4 | 25.3 | 10.2 | 15.5 | – |
| COc1ccccc1/C=C/C=C/C(=O)/C=C/C1=C(C)CCCC1(C)C | 65.3 | 33.5 | 72.4 | 25.3 | 55.4 | – |
| CC1=C(/C=C/C(=O)/C=C/c2ccccc2Cl)C(C)(C)CCC1 | 54.2 | 21.8 | 13.7 | 11.3 | 54.6 | – |
| CC1=C(/C=C/C(=O)/C=C/c2ccccc2)C(C)(C)CCC1 | 62.2 | 70.2 | 20.4 | 12.4 | 10.6 | – |
| CC1=C(/C=C/C(=O)/C=C/c2ccc(Br)cc2)C(C)(C)CCC1 | 34.5 | 88.8 | 10.4 | 18.9 | 20.1 | – |
| COc1ccc(/C=C/C(=O)/C=C/C2=C(C)CCCC2(C)C)cc1OC | 72.4 | 85 | 29.2 | 30.2 | 35.6 | – |
| CC1=C(/C=C/C(=O)/C=C/c2ccccc2Br)C(C)(C)CCC1 | 16.3 | 57.9 | 16.3 | 11.4 | 20.7 | – |
| COc1ccc(/C=C/C(=O)/C=C/C2=C(C)CCCC2(C)C)cc1 | > 100 | 15.7 | 23.9 | 58.7 | 19.6 | – |
| CC1=C(/C=C/C(=O)/C=C/C=C/c2ccccc2)C(C)(C)CCC1 | > 100 | > 100 | 23.4 | 35.4 | 46.7 | – |
| CC1=C(/C=C/C(=O)/C=C/c2ccc(Cl)c(Cl)c2)C(C)(C)CCC1 | > 100 | > 100 | 72.4 | 35.5 | 53.5 | – |
| CC1=C(/C=C/C(=O)/C=C/c2ccccc2F)C(C)(C)CCC1 | 23.6 | 41.9 | 15.6 | 3.4 | 11 | – |
| CC1=C(/C=C/C(=O)/C=C/c2cccc3ccccc23)C(C)(C)CCC1 | > 100 | 65.4 | 43.8 | 56.4 | 53.2 | – |
| CC1=C(/C=C/C(=O)/C=C/c2ccc(C#N)cc2)C(C)(C)CCC1 | 45.6 | 22.2 | 23.4 | 11.9 | 13.2 | – |
| CC1=C(/C=C/C(=O)/C=C/c2ccccc2[N+](=O)[O-])C(C)(C)CCC1 | 44.9 | 36.1 | 13.5 | 9.5 | 10.1 | – |
| CC1=C(/C=C/C(=O)/C=C/c2ccc(F)cc2)C(C)(C)CCC1 | 55.8 | 32.2 | 7.4 | 8.2 | 6.2 | – |
| O=c1[nH]cc(F)c(=O)[nH]1 [FLUOROURACIL] | 0.5 | – | 1.3 | – | – | – |
| CC1=C(/C=C/C(=O)/C=C/c2ccc([N+](=O)[O-])cc2)C(C)(C)CCC1 | 55.5 | 28.7 | 3.2 | 1.9 | 5.5 | Activity (CHO [7]): 39.1%; Activity (CHO [8]): 7.5%; viability at 15 µM (CHO [9]): 52.3%; Activity (CHO [10]): 1.1%; Activity (CHO [11]): 19.4%; Activity (CHO [12]): 5.1%; viability at 5 µM (CHO [13]): 74.7%; Activity (CHO [14]): 0.8%; Activity (CHO [2]): 33.3%; Activity (CHO [3]): 5.8%; viability at 10 µM (CHO [4]): 59.5%; Activity (CHO [5]): 1.4%; Activity (CHO [15]): 48.1%; Activity (CHO [16]): 30.5%; Activity (CHO [6]): 36%; Activity (CHO [17]): Active; Activity (CHO [18]): Active; Activity (CHO [19]): Dose-dependent effect; IC50 (CHO [19]): 10 µM |
